Test results reported in ChEMBL document CHEMBL4190369, “Indolinone Inhibitors of ENT1 for the Treatment of Schizophrenia” (ACS Med Chem Lett, 2017).

Each compound was assayed on Mus musculus (assay: Anti-schizophrenic activity in mouse assessed inhibition of L-687414-induced hyperlocomotion at 30 mg/kg, ip pretreated for 15 mins followed by L-687414 addition measured at 5 mins interval for 30 mins relative to control).
Type: functional

| SMILES | inhibition in vivo at 30 mg/kg |
| --- | --- |
| Cc1ncc(-c2ccc3c(c2)N(c2ccc4c(c2)N(C)C(=O)CO4)C(=O)C3(C)C)cn1 | 93.8% |
| Cc1ncc(-c2ccc3c(c2)N(c2cnc(C)c(N4CCOC4=O)n2)C(=O)C3(C)C)cn1 | 89.7% |
| Cc1ncc(-c2ccc3c(c2)N(c2ccc4c(n2)N(C)C(=O)C4(C)C)C(=O)C3(C)C)cn1 | 99.5% |
| Cc1ncc(-c2ccc3c(c2)N(c2cncc(N4CCCC4=O)n2)C(=O)C3(C)C)cn1 | 87.8% |
| Cc1ncc(-c2ccc3c(c2)N(c2cnc(-n4ccnc4C)cn2)C(=O)C3(C)C)cn1 | 96.3% |
| Cc1ncc(-c2ccc3c(c2)N(c2cncc(N4CCOCC4)n2)C(=O)C3(C)C)cn1 | 90% |
| Cc1ncc(-c2ccc3c(c2)N(c2cncc(N4CCOC4=O)n2)C(=O)C3(C)C)cn1 | 87.1% |
| Cc1ncc(-c2ccc3c(c2)N(c2cnc4c(c2)C(C)(C)C(=O)N4C)C(=O)C3(C)C)cn1 | 93.5% |
| Cc1ncc(-c2ccc3c(c2)N(c2cnc(C)c(N4CCOCC4)n2)C(=O)C3(C)C)cn1 | 88.8% |
